Source: patent US12077524B2, “Crystal of pyrrolidine compound” (MITSUBISHI TANABE PHARMA CORPORATION, priority 2018, dated 2024)
Where a name gives a salt, the structure may show the parent alone. Read-outs that look alike come from different tables or passages of the source.

Assays:
Format in all cases: physicochemical
[1] = Thermal stability evaluation (TG/DTA); conditions: for Thermal stability TG: weight change: 10 K/min, nitrogen
Procedure: Thermal stability was evaluated by using a thermogravimetry/differential thermal analyzer TG/DTA7200 (SII NanoTechnology Inc.) under the following conditions. • Rate of temperature increase: 10 K/min • Atmosphere: nitrogen 200 mL/min <Hygroscopicity or Deliquescency Evaluation>

[2] = Hygroscopicity or deliquescency evaluation (moisture adsorption, DVS)
Procedure: Hygroscopicity or deliquescency was evaluated as follows by using a moisture adsorption measurement device DVS-1 or DVS-intrinsic (Surface Measurement Systems Limited). Each sample was placed into a cell of which the tare weight had been corrected in advance, and the cell was hung on the precision balance of said device to precisely measure the weight at the start of measurement. The humidity was changed in a stepwise manner, the weight change was recorded with time, and the equilibrium weight was calculated at each humidity. On the basis of the weight of anhydride converted from the amount of water at a dried condition (0% RH) or at the start of measurement observed by an alternative method, the weight change rate at each humidity was calculated.

[3] = Chemical stability evaluation (storage 1 week, related substances by HPLC, observation of sample)
Procedure: Each sample was stored at 60° C. under a sealed condition and at 60° C. under 75% RH for 1 week, an increase or decrease of related substances after the storage was calculated by high-performance liquid chromatographic method on the basis of the area percentage of each peak. Also, the condition of each sample after the storage was observed.

COC[C@H]1CN(C(=O)[C@]2(F)CN(C3CCCC3)C[C@H]2c2ccc(OC)cc2)C[C@@H]1c1ccc(C(F)(F)F)cc1N1CCC(C(=O)O)CC1 [Amorphous of free form, 1-{2-[(3S,4R)-1-[(3R,4R)-1-cyclopentyl-3-fluoro-4-(4-methoxyphenyl)pyrrolidine-3-carbonyl]-4-(methoxymethyl)pyrrolidin-3-yl]-5-(trifluoromethyl)phenyl}piperidine-4-carboxylic acid]
Thermal stability TG: weight change ([1]; 30-130° C.): 2.2%
Hygroscopicity or Deliquescency: Weight change under 90% RH [2]: 1.8%

COC[C@H]1CN(C(=O)[C@]2(F)CN(C3CCCC3)C[C@H]2c2ccc(OC)cc2)C[C@@H]1c1ccc(C(F)(F)F)cc1N1CCC(C(=O)O)CC1 [Amorphous of hydrochloride, 1-{2-[(3S,4R)-1-[(3R,4R)-1-cyclopentyl-3-fluoro-4-(4-methoxyphenyl)pyrrolidine-3-carbonyl]-4-(methoxymethyl)pyrrolidin-3-yl]-5-(trifluoromethyl)phenyl}piperidine-4-carboxylic acid]
Thermal stability TG: weight change ([1]; 30-150° C.): 4.8%
Deliquescency [2]: deliquescent
Hygroscopicity or Deliquescency: Weight change under 90% RH [2]: 11.87%
Deliquescency ([2]; listed as hydrochloride of the Pyrrolidine compound A): has deliquescency
Hygroscopicity or Deliquescency: observation (deliquescent) ([2]; under 90% RH): deliquescent
Chemical stability: condition of sample after the storage ([3]; 60° C., 75% RH, 1 week): deliquescent

COC[C@H]1CN(C(=O)[C@]2(F)CN(C3CCCC3)C[C@H]2c2ccc(OC)cc2)C[C@@H]1c1ccc(C(F)(F)F)cc1N1CCC(C(=O)O)CC1 [Crystal of free form, 1-{2-[(3S,4R)-1-[(3R,4R)-1-cyclopentyl-3-fluoro-4-(4-methoxyphenyl)pyrrolidine-3-carbonyl]-4-(methoxymethyl)pyrrolidin-3-yl]-5-(trifluoromethyl)phenyl}piperidine-4-carboxylic acid]
Chemical stability [3]: poor

COC[C@H]1CN(C(=O)[C@]2(F)CN(C3CCCC3)C[C@H]2c2ccc(OC)cc2)C[C@@H]1c1ccc(C(F)(F)F)cc1N1CCC(C(=O)O)CC1 [Present crystal, 1-{2-[(3S,4R)-1-[(3R,4R)-1-cyclopentyl-3-fluoro-4-(4-methoxyphenyl)pyrrolidine-3-carbonyl]-4-(methoxymethyl)pyrrolidin-3-yl]-5-(trifluoromethyl)phenyl}piperidine-4-carboxylic acid]
Thermal stability TG: weight change ([1]; 30-230° C.): No change
Weight change on heating ([1]; even at 200° C. or more): did not show a weight change
Deliquescency ([2]; listed as Phosphoric acid Form B crystal): not deliquescent
